What was measured:
[1] = test system: HBV; assay: Anti-HBV activity, HepG2.2.15 stable transfected cell line, HBV DNA from secreted virions by realtime PCR; format: cell-based; details: Hepatitis B virus, HepG2.2.15, 144 h, HepG2.2.15 cells, 6 days of treatment, HBV DNA from secreted virions; read-out: HepG2 2.15 EC50
[2] = Cytotoxicity in HepG2 cells, Resazurin viability assay; details: human, HepG2 cells, HepG2 4 days CC50 (μM), incubated for 4 days, Resazurin assay
[3] = test system: HBV; assay: Anti-HBV activity, HepG2.117 inducibly HBV producing cell line (Tet-off), intracellular HBV DNA by realtime PCR; format: cell-based; details: Hepatitis B virus, HepG2.117, 72 h, HepG2.117 cells, 3 days of treatment, intracellular HBV DNA; read-out: HepG2 117 EC50

Row | Structure (SMILES) | EC50 [1] [µM] | CC50 at 4 days [2] [µM] | EC50 [3] [µM]
1 | CC(C)NS(=O)(=O)c1cc(C(=O)Nc2cccc(C#N)c2)n(C)c1 [Compound 177, N-(3-Cyanophenyl)-1-methyl-4-[(1-methylethyl)sulfamoyl]-1H-pyrrole-2-carboxamide] | 0.33 | > 25 | 0.26
2 | Cc1cc(NC(=O)c2cc(S(=O)(=O)NC3(CCO)COC3)cn2C)ccc1F [Compound 14, N-(4-fluoro-3-methyl-phenyl)-4-[[3-(2-hydroxyethyl)oxetan-3-yl]sulfamoyl]-1-methyl-pyrrole-2-carboxamide] | 0.04 | > 25 | 0.02
3 | Cn1cc(S(=O)(=O)NC(C)(C)CF)cc1C(=O)Nc1cc(F)c(F)c(Cl)c1 [Compound 207, N-(3-chloro-4,5-difluoro-phenyl)-4-[(2-fluoro-1,1-dimethyl-ethyl)sulfamoyl]-1-methyl-pyrrole-2-carboxamide] | 0.05 | > 25 | 0.14
4 | Cn1cc(S(=O)(=O)NC2(C)COC2)cc1C(=O)Nc1ccc(F)c(C(C)(F)F)c1 [Compound 161, N-[3-(1,1-Difluoroethyl)-4-fluorophenyl]-1-methyl-4-[(3-methyloxetan-3-yl)sulfamoyl]-1H-pyrrole-2-carboxamide] | > 1 | > 25 | 0.91
5 | Cc1c(F)ccc(NC(=O)c2c(F)c(S(=O)(=O)NC3(C)COC3)cn2C)c1F [Compound 110, N-(2,4-Difluoro-3-methylphenyl)-3-fluoro-1-methyl-4-[(3-methyloxetan-3-yl)sulfamoyl]-1H-pyrrole-2-carboxamide] | 0.02 | > 25 | 0.03
6 | C[C@H](NS(=O)(=O)c1cc(C(=O)Nc2ccc(F)c(F)c2F)n(C)c1)C(F)(F)F [Compound 154, 1-Methyl-4-{[(1S)-2,2,2-trifluoro-1-methylethyl]sulfamoyl}-N-(2,3,4-trifluorophenyl)-1H-pyrrole-2-carboxamide] | 0.13 | > 25 | 0.08
7 | Cn1cc(S(=O)(=O)NC(C)(C)C)cc1C(=O)Nc1ccc(F)c(OC(F)(F)F)c1 [Compound 98, 4-(tert-Butylsulfamoyl)-N-[4-fluoro-3-(trifluoromethoxy)phenyl]-1-methyl-1H-pyrrole-2-carboxamide] | 0.81 | > 25 | 0.54
8 | C[C@@H](NS(=O)(=O)c1cc(C(=O)Nc2ccc(F)c(F)c2)n(C)c1)C(F)(F)F [Compound 92, N-(3,4-Difluorophenyl)-1-methyl-4-{[(1R)-2,2,2-trifluoro-1-methylethyl]-sulfamoyl}-1H-pyrrole-2-carboxamide] | 0.04 | > 25 | 0.03
9 | Cc1cc(NC(=O)c2cc(S(=O)(=O)NC3(C)COC3)cn2C)cc(C(F)(F)F)c1 [Compound 82, 1-Methyl-4-[(3-methyloxetan-3-yl)sulfamoyl]-N-[3-methyl-5-(trifluoro-methyl)phenyl]-1H-pyrrole-2-carboxamide] | 0.17 | > 25 | 0.49
10 | CC[C@@H](NS(=O)(=O)c1cc(C(=O)Nc2ccc(F)c(C#N)c2)n(C)c1)C(F)(F)F [Compound 240, N-(3-Cyano-4-fluorophenyl)-1-methyl-4-{[(1R)-1-(trifluoromethyl)-propyl]sulfamoyl}-1H-pyrrole-2-carboxamide] | 0.02 | > 25 | 0.05
11 | Cc1cc(NC(=O)c2cc(S(=O)(=O)NC3(C)COC3)c(C)n2C)ccc1F [Compound 89, N-(4-Fluoro-3-methylphenyl)-1,5-dimethyl-4-[(3-methyloxetan-3-yl)sulfamoyl]-1H-pyrrole-2-carboxamide] | 0.02 | > 25 | 0.02
12 | C[C@@H](NS(=O)(=O)c1cn(C)c(C(=O)Nc2ccc(F)c(Br)c2F)c1F)C(F)(F)F [Compound 184, N-(3-Bromo-2,4-difluorophenyl)-3-fluoro-1-methyl-4-{[(1R)-2,2,2-trifluoro-1-methylethyl]sulfamoyl}-1H-pyrrole-2-carboxamide] | 0.008 | > 25 | 0.006
13 | Cn1cc(S(=O)(=O)N[C@H]2C[C@@H](O)C2)cc1C(=O)Nc1ccc(F)c(F)c1 [Compound 25, N-(3,4-difluorophenyl)-4-[(3-hydroxycyclobutyl)sulfamoyl]-1-methyl-pyrrole-2-carboxamide] | 0.34 | > 25 | 0.23
14 | Cn1cc(S(=O)(=O)NC(C)(C)C)cc1C(=O)Nc1cc(F)c(F)c(F)c1 [Compound 68, 4-(tert-butylsulfamoyl)-1-methyl-N-(3,4,5-trifluorophenyl)pyrrole-2-carboxamide] | 0.07 | > 25 | 0.07
15 | Cn1cc(S(=O)(=O)NC2(C(F)(F)F)CC2)cc1C(=O)Nc1cc(F)c(F)c(Cl)c1 [Compound 72, N-(3-chloro-4,5-difluoro-phenyl)-1-methyl-4-[[1-(trifluoromethyl)-cyclopropyl]sulfamoyl]pyrrole-2-carboxamide] | 0.01 | > 25 | 0.01
16 | C[C@H](CO)NS(=O)(=O)c1cc(C(=O)Nc2ccc(F)c(C(F)(F)F)c2)n(C)c1 [Compound 41, N-[4-fluoro-3-(trifluoromethyl)phenyl]-4-[[(1R)-2-hydroxy-1-methyl-ethyl]sulfamoyl]-1-methyl-pyrrole-2-carboxamide] | 0.52 | > 25 | 0.33
17 | CCn1cc(S(=O)(=O)N[C@H]2CCOC2)cc1C(=O)Nc1ccc(F)c(C)c1 [Compound 30, 1-ethyl-N-(4-fluoro-3-methyl-phenyl)-4-[[(3S)-tetrahydrofuran-3-yl]-sulfamoyl]pyrrole-2-carboxamide] | 0.45 | > 25 | 0.33
18 | Cn1cc(S(=O)(=O)NC(C)(C)C(F)(F)F)c(Cl)c1C(=O)Nc1ccc(F)c(C#N)c1 [Compound 270, 3-Chloro-N-(3-cyano-4-fluorophenyl)-1-methyl-4-[(2,2,2-trifluoro-1,1-dimethylethyl)sulfamoyl]-1H-pyrrole-2-carboxamide] | 0.06 | > 25 | 0.11
19 | Cn1cc(S(=O)(=O)NC(C)(C)C)cc1C(=O)Nc1cccc(Cl)c1F [Compound 193, 4-(tert-Butylsulfamoyl)-N-(3-chloro-2-fluorophenyl)-1-methyl-1H-pyrrole-2-carboxamide] | 0.14 | > 25 | 0.11
20 | Cc1cc(NC(=O)c2cc(S(=O)(=O)N[C@H](C)CS(C)(=O)=O)cn2C)ccc1F [Compound 97, N-(4-Fluoro-3-methylphenyl)-1-methyl-4-{[(1R)-1-methyl-2-(methyl-sulfonyl)ethyl]sulfamoyl}-1H-pyrrole-2-carboxamide] | 0.03 | > 25 | 0.03
21 | C[C@@H](NS(=O)(=O)c1cc(C(=O)Nc2cccc(F)c2F)n(C)c1)C(F)(F)F [Compound 203, N-(2,3-Difluorophenyl)-1-methyl-4-{[(1R)-2,2,2-trifluoro-1-methyl-ethyl]sulfamoyl}-1H-pyrrole-2-carboxamide] | 0.38 | > 25 | 0.47
22 | C[C@@H](NS(=O)(=O)c1cc(C(=O)Nc2ccc(F)c(C(F)(F)F)c2)n(C)c1)C(F)(F)F [Compound 125, N-[4-Fluoro-3-(trifluoromethyl)phenyl]-1-methyl-4-{[(1R)-2,2,2-trifluoro-1-methylethyl]sulfamoyl}-1H-pyrrole-2-carboxamide] | 0.19 | 16.7 | 0.08
23 | Cc1c(S(=O)(=O)N[C@H](C)C(F)(F)F)cc(C(=O)Nc2ccc(F)c(Cl)c2F)n1C [Compound 143, N-(3-Chloro-2,4-difluorophenyl)-1,5-dimethyl-4-{[(1R)-2,2,2-trifluoro-1-methylethyl]sulfamoyl}-1H-pyrrole-2-carboxamide] | 0.05 | > 25 | 0.15
24 | Cn1cc(S(=O)(=O)NC2(C(F)(F)F)CCC2)c(Cl)c1C(=O)Nc1ccc(F)c(F)c1 [Compound 267, 3-chloro-N-(3,4-difluorophenyl)-1-methyl-4-{[1-(trifluoromethyl)-cyclobutyl]sulfamoyl}-1H-pyrrole-2-carboxamide] | 0.006 | > 25 | 0.009
25 | Cc1cc(NC(=O)c2c(F)c(S(=O)(=O)N[C@H](C)C(F)(F)F)cn2C)cc(C#N)c1F [Compound 283, N-(3-cyano-4-fluoro-5-methyl-phenyl)-3-fluoro-1-methyl-4-[[(1R)-2,2,2-trifluoro-1-methyl-ethyl]sulfamoyl]pyrrole-2-carboxamide] | 0.02 | > 25 | 0.03
26 | C[C@@H](NS(=O)(=O)c1cn(C)c(C(=O)Nc2ccc(F)c(Cl)c2F)c1F)C(F)(F)F [Compound 185, N-(3-Chloro-2,4-difluorophenyl)-3-fluoro-1-methyl-4-{[(1R)-2,2,2-trifluoro-1-methylethyl]sulfamoyl}-1H-pyrrole-2-carboxamide] | 0.006 | > 25 | 0.005
27 | Cc1cc(NC(=O)c2cc(S(=O)(=O)N[C@H](C)CO)cn2C)ccc1F [Compound 3, N-(4-fluoro-3-methyl-phenyl)-4-[[(1R)-2-hydroxy-1-methyl-ethyl]sulfamoyl]-1-methyl-pyrrole-2-carboxamide] | 0.07 | > 25 | 0.1
28 | C[C@@H](NS(=O)(=O)c1cc(C(=O)Nc2ccc(F)c(C#N)c2)n(C)c1)C(C)(F)F [Compound 298, N-(3-cyano-4-fluoro-phenyl)-4-[[(1R)-2,2-difluoro-1-methyl-propyl]-sulfamoyl]-1-methyl-pyrrole-2-carboxamide] | 0.02 | 23.7 | 0.05
